Data taken from patent publication US4876260A, “Oxathiolanes” (State of Israel, Israel Institute of Biological Research, priority 1988, dated 1989).

How the values were obtained:
[1] = target: T1, M1 muscarinic receptors (3H-PZ sites, forebrain) (Rattus norvegicus, UniProt P08482); test: Displacement of 3H-Pirenzepine (3H-PZ, selective M1 antagonist) from rat forebrain homogenate; assay type: binding; conditions: for Ki: (a) forebrain
T1 sequence (P08482 1-460): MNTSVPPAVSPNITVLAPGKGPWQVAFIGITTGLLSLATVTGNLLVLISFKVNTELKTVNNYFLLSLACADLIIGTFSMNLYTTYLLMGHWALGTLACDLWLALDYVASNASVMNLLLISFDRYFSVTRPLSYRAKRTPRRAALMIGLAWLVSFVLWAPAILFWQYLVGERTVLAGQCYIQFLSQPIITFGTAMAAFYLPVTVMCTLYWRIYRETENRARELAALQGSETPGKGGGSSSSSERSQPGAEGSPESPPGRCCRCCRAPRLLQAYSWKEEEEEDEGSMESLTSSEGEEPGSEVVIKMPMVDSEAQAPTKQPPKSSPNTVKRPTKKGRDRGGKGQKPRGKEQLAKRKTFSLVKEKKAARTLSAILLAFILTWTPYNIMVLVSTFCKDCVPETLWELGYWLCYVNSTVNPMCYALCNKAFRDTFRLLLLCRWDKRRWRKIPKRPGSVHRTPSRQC

[2] = tested on: muscarinic receptors (3H-QNB sites, cerebellum, mainly M2); test: biochemical; assay type: binding, rat; conditions: for a:b": (h) Ki(3H-PZ) forebrain : Ki(3H-QNB) cerebellum; for b:b": (j) Ki(3H-QNB) forebrain : Ki(3H-QNB) cerebellum
[3] = target: T2, M1 muscarinic receptors (3H-PZ sites, frontal cortex) (Rattus norvegicus, UniProt P08482); test: Displacement of 3H-PZ from rat frontal cortex homogenate; assay type: binding; conditions: for Ki: (a') frontal cortex, read-out: Ki(3H-PZ); for a':c', Ki(3H-PZ):Ki(3H-CD): (g) frontal cortex ratio
T2 sequence (P08482 1-460): T1 sequence (P08482 1-460)

[4] = tested on: isolated guinea-pig ileum; test: Contraction of isolated guinea-pig ileum preparation
Excerpt: From this Table, it appears that compounds (III) were not so effective in contracting the guinea pig ileum preparation.

[5] = tested on: mice; test: Pharmacodynamic profile and general toxicity in mice; assay type: in vivo, CD-1 mice
Experimental: Male white mice of the CD-1 strain supplied by Charles River Ltd. (U.K.) were used throughout. An acclimatization period of at least three days was allowed between arrival and commencement of a particular experimental series. The animals were fed a complete commercial pelleted rodent diet without restriction during the acclimatization and study periods. Animals had free access to tap water. Body weights during testing were mostly within 20-28 g.
Test materials were prepared as aqueous solutions in physiological saline (0.9% NaCl), up to a maximum concentration of 10 mg./ml. All materials were freshly prepared on the morning prior to each dosing session. Dosages were expressed gravimetrically (mg./kg.), in terms of the materials as received.
Groups of mice (mostly n=5) received either i.v. or oral administration of the test materials at various dose levels. Dose volumes appropriate for respective dose levels selected, were determined for each animal according to body weights on the day of dosing. Any behavioral changes occurring during one to two hours after administration, as well as incidence of death up to 24 hours after dosing were recorded.

[6] = 10 mg/kg i.v., listed as (-)-III AF122B
[7] = 25 mg/kg i.v., listed as (-)-III AF122B
[8] = 50 mg/kg i.v., listed as (-)-III AF122B
[9] = 100 mg/kg i.v., immed = immediately
[10] = 200 mg/kg p.o., listed as (-)-III AF122B
[11] = 25 mg/kg i.v., listed as (-)-III AF122A
[12] = 50 mg/kg i.v., listed as (-)-III AF122A
[13] = 200 mg/kg p.o., listed as (-)-III AF122A
[14] = 50 mg/kg i.v., listed as (+)-III AF122A
[15] = 200 mg/kg p.o., listed as (+)-III AF122A

C[C@@H]1O[C@]2(CS1)CN1CCC2CC1 (relative stereo) [compound 3, 2-methylspiro(1,3-oxathiolan-5,3')quinuclidine]
a:b, Ki(3H-PZ):Ki(3H-QNB) [1]: 0.59 | Ki [1]: 14600 ± 2900 nM | a:b" [2]: 0.52 | b:b" [2]: 0.88

C[C@H]1O[C@]2(CS1)CN1CCC2CC1 (relative stereo) [compound 4, 2-methylspiro(1,3-oxathiolan-5,3')quinuclidine]
a:b, Ki(3H-PZ):Ki(3H-QNB) [1]: 0.14 | Ki [1]: 1000 ± 400 nM | a':b', Ki(3H-PZ):Ki(3H-QNB) [3]: 0.13 | Ki [3]: 960 ± 50 nM | a':c', Ki(3H-PZ):Ki(3H-CD) [3]: 2.5 | a:b" [2]: 0.07 | a':b" ([2]; (i) Ki(3H-PZ) frontal cortex : Ki(3H-QNB) cerebellum): 0.1 | b:b" [2]: 0.47 | b':b" ([2]; (k) Ki(3H-QNB) frontal cortex : Ki(3H-QNB) cerebellum): 0.39 | Agonist type (remarks) [4]: Full agonist

C[C@H]1O[C@]2(CS1)CN1CCC2CC1 (single isomer, unassigned) [Compound #5, 2-methylspiro(1,3-oxathiolan-5,3')quinuclidine]
a:b, Ki(3H-PZ):Ki(3H-QNB) [1]: 0.3 | Ki [1]: 1100 ± 300 nM | Ki [3]: 410 ± 80 nM | a':c', Ki(3H-PZ):Ki(3H-CD) [3]: 2.1 | a:b" [2]: 0.14 | b:b" [2]: 0.47

C[C@H]1O[C@]2(CS1)CN1CCC2CC1 (single isomer, unassigned) [compound 6, 2-methylspiro(1,3-oxathiolan-5,3')quinuclidine]
a:b, Ki(3H-PZ):Ki(3H-QNB) [1]: 0.20 | Ki [1]: 9600 ± 1800 nM | Ki [3]: 4630 ± 420 nM | a':c', Ki(3H-PZ):Ki(3H-CD) [3]: 0.6 | a:b" [2]: 0.1 | b:b" [2]: 0.48

CC1OCC2(CN3CCC2CC3)S1 (single isomer, unassigned) [compound 9, 2-methylspiro(1,3-oxathiolan-4,3')quinuclidine]
Ki [3]: 12100 nM | Contraction of guinea pig ileum (in words) ([4]; listed as (-)-AF122B): inconsistent contractile response: sometimes at high concentrations it induced contractions, whereas at other times it did not | Analgesia (nonresponsiveness to tail pinch), No. affected/total treated [5, 6]: 3/5 | Mortality, No. dead/total treated [5, 6]: 0/5 | Analgesia (nonresponsiveness to tail pinch), No. affected/total treated ([5]; 25 mg/kg i.v.): 5/5 | Vocalization, No. affected/total treated ([5]; 25 mg/kg i.v.): 1/5 | Altered motor activity [5, 7]: a+h | Convulsive seizures, No. affected/total treated [5, 7]: 3/5 | Mortality, No. dead/total treated [5, 7]: 0/5 | Respiratory distress, No. affected/total treated [5, 7]: 2/5 | Tremors, No. affected/total treated [5, 7]: 3/5 | Convulsive seizures, No. affected/total treated [5, 8]: 2/2 | Mortality, No. dead/total treated [5, 8]: 2/2 | Mortality, time after drug administration [5, 8]: 5 s | Altered motor activity ([5]; 50 mg/kg p.o.): a+h | Mortality, time after drug administration [5, 9]: immed | Mortality, No. dead/total treated ([5]; 100 mg/kg i.v., listed as (-)-III AF122B): 2/2 | Convulsive seizures, No. affected/total treated ([5]; 100 mg/kg p.o.): 2/5 | Respiratory distress, No. affected/total treated ([5]; 100 mg/kg p.o.): 1/5 | Tremors, No. affected/total treated ([5]; 100 mg/kg p.o.): 1/5 | Mortality, No. dead/total treated ([5]; 100 mg/kg p.o., listed as (-)-III AF122B): 1/5 | Analgesia (nonresponsiveness to tail pinch), No. affected/total treated [5, 10]: 3/4 | Convulsive seizures, No. affected/total treated [5, 10]: 4/4 | Mortality, No. dead/total treated [5, 10]: 4/4 | Respiratory distress, No. affected/total treated [5, 10]: 3/5 | Vocalization, No. affected/total treated [5, 10]: 2/4 | Mortality, time after drug administration ([5]; 200 mg/kg p.o., m = minutes, listed as (-)-III AF122B): 20 m

CC1OCC2(CN3CCC2CC3)S1 (single isomer, unassigned) [compound 12, 2-methylspiro(1,3-oxathiolan-4,3')quinuclidine]
Ki [3]: 350 ± 40 nM | Mortality, No. dead/total treated ([5]; 10 mg/kg i.v., listed as (-)-III AF122A): 0/5 | Exophthalmus, No. affected/total treated ([5]; 25 mg/kg i.v.): 4/5 | Convulsive seizures, No. affected/total treated [5, 11]: 1/5 | Mortality, No. dead/total treated [5, 11]: 1/5 | Mortality, time after drug administration [5, 11]: 10 s | Respiratory distress, No. affected/total treated [5, 11]: 4/5 | Tremors, No. affected/total treated [5, 11]: 4/5 | Convulsive seizures, No. affected/total treated [5, 12]: 1/1 | Mortality, No. dead/total treated [5, 12]: 1/1 | Mortality, time after drug administration [5, 12]: 10 s | Tremors, No. affected/total treated [5, 12]: 1/1 | Mortality, time after drug administration [5, 9]: immed | Mortality, No. dead/total treated ([5]; 100 mg/kg i.v., listed as (-)-III AF122A): 1/1 | Mortality, No. dead/total treated ([5]; 100 mg/kg p.o., listed as (-)-III AF122A): 0/5 | Tremors, No. affected/total treated ([5]; 200 mg/kg p.o.): 3/5 | Convulsive seizures, No. affected/total treated [5, 13]: 1/5 | Mortality, No. dead/total treated [5, 13]: 1/5 | Respiratory distress, No. affected/total treated [5, 13]: 3/5 | Vocalization, No. affected/total treated [5, 13]: 2/5 | Mortality, time after drug administration ([5]; 200 mg/kg p.o., m = minutes, listed as (-)-III AF122A): 10 m

CC1OCC2(CN3CCC2CC3)S1 (single isomer, unassigned) [compound 13, 2-methylspiro(1,3-oxathiolan-4,3')quinuclidine]
Ki [3]: 4210 ± 470 nM | Mortality, No. dead/total treated ([5]; 10 mg/kg i.v., listed as (+)-III AF122A): 0/5 | Mortality, No. dead/total treated ([5]; 25 mg/kg i.v., listed as (+)-III AF122A): 0/5 | Exophthalmus, No. affected/total treated ([5]; 50 mg/kg i.v.): 3/5 | Convulsive seizures, No. affected/total treated [5, 14]: 5/5 | Mortality, No. dead/total treated [5, 14]: 4/5 | Mortality, time after drug administration [5, 14]: 30 s | Tremors, No. affected/total treated [5, 14]: 4/5 | Mortality, No. dead/total treated ([5]; 50 mg/kg p.o.): 0/5 | Mortality, time after drug administration [5, 9]: immed | Mortality, No. dead/total treated ([5]; 100 mg/kg i.v., listed as (+)-III AF122A): 1/1 | Mortality, No. dead/total treated ([5]; 100 mg/kg p.o., listed as (+)-III AF122A): 0/5 | Altered motor activity [5, 15]: a+h | Mortality, No. dead/total treated [5, 15]: 0/5
